The nature of the assay: Inhibition of PDGFR-beta driven proliferation of rat A10 cells after 68 hrs in presence of rat recombinant PDGF-BB by cell titer-glo luminescence assay. For orientation: Cellular ATP, detected with luciferase, serves as a proxy for viable cell number.
As to `Cc1ccc(NC(=O)c2ccc(CN3CCN(C)CC3)cc2)cc1Nc1nccc(-c2cccnc2)n1`, the IC50 is 162 nM. As for `Cn1nccc1-c1ccn2c(C(=O)Nc3cc(C(=O)NCc4ccc(F)c(F)c4)ccc3F)cnc2c1`, the figure is 3 nM.

For the molecule `CN1CCN(c2ccccc2CNC(=O)c2ccc(F)c(NC(=O)c3cnc4cc(-c5cccnc5)ccn34)c2)CC1`, the IC50 came out at 7.9 nM. As for `C[C@@H]1CCC[C@H](C)N1CCNC(=O)c1ccc(F)c(NC(=O)c2cnc3cc(-c4ccnn4C)ccn23)c1`, the figure is 8.7 nM; as for `Cn1cc(-c2ccn3c(C(=O)Nc4cc(C(=O)NCCN5CCCC5(C)C)ccc4F)cnc3c2)cn1`, 1.7 nM. The figure for `CN1CCN(c2ccccc2CNC(=O)c2ccc(F)c(NC(=O)c3cnc4cc(-c5cnn(C)c5)ccn34)c2)CC1` is 3.6 nM; for `Cn1nccc1-c1ccn2c(C(=O)Nc3cc(C(=O)NCC4CCC(C)(C)O4)ccc3F)cnc2c1` (configuration not stated) it is 2.7 nM; for `CN(CCNC(=O)c1ccc(F)c(NC(=O)c2cnc3cc(-c4ccnn4C)ccn23)c1)C(C)(C)C` it is 23 nM. The figure for `CN1CCN(c2ccccc2CNC(=O)c2ccc(F)c(NC(=O)c3cnc4cc(-c5cc[nH]n5)ccn34)c2)CC1` is 19 nM; for `Cc1ncc(C(=O)NCCN2CCCC2(C)C)cc1NC(=O)c1cnn2cc(-c3cnn(C)c3)ccc12` it is 13 nM. For `Cc1ccc(C(=O)NCc2ccccc2)cc1NC(=O)c1cnn2ccccc12`, the IC50 was 12 nM. As for `Cc1ncc(C(=O)NCc2ccccc2N2CCN(C)CC2)cc1NC(=O)c1cnn2cc(-c3ccnn3C)ccc12`, the figure is 35 nM; as for `CN1CCN(c2ccccc2CNC(=O)c2ccc(F)c(NC(=O)c3cnc4cc(-c5ccnn5C)ccn34)c2)CC1`, 9.2 nM. As for `CN1CCN(c2ccccc2CNC(=O)c2ccc(F)c(NC(=O)c3cnn4cc(-c5ccnn5C)ccc34)c2)CC1`, the figure is 10 nM; as for `Cn1nccc1-c1ccn2c(C(=O)Nc3cc(C(=O)NCCN4CCCC4(C)C)ccc3F)cnc2c1`, 9.5 nM; as for `CCN(CCNC(=O)c1ccc(F)c(NC(=O)c2cnc3cc(-c4ccnn4C)ccn23)c1)C(C)(C)C`, 22 nM. Regarding `CN1CCN(c2ccccc2CNC(=O)c2ccc(F)c(NC(=O)c3cnc4ccccn34)c2)CC1`, the IC50 stood at 36 nM.

One may read the IC50 as the concentration that inhibits the measured activity by half.

The record behind these values is BindingDB's records for doi:10.1021/acs.jmedchem.6b00703 (Novartis Institutes of Biomedical Research (Nibr), 2016).
